From paper PMC12752606, “METTL10‐Mediated PIAS3 Methylation Links Purine Metabolism to Gastric Cancer Progression” (Advanced Science, 2025) come the findings set out here.

Data set [1] has as its system MITF ubiquitination mediated by PIAS3 and METTL10. Kind of data set: In vitro ubiquitination assay with purified Flag-MITF. The conditions noted are these: 20 µM. It is filed as biochemical. As to the method:
For the in vitro Sumoylation assay, bacteria‐purified GST‐PIAS3 and HEK293T‐purified MITF were incubated with SAE1, UBC9 in reaction buffer according to the manufacturer's instructions at 37 °C for 2 h. For the in vitro ubiquitination assay, purified His‐METTL10, GST‐PIAS3, Flag‐MITF, SAE1, and UBC9 proteins were incubated with ubiquitin, UBE1, UBE2B, and RNF4 in reaction buffer according to the manufacturer's instructions at 37 °C for 2 h. All the samples were subjected to immunoprecipitation and subsequently boiled in SDS‐PAGE loading buffer for immunoblotting.

The subject of data set [2] is METTL10 protein levels in MKN45 and AGS cells. As to the kind of experiment: Immunoblotting of METTL10 protein levels in treated GC cells. It is filed as cell-based. The conditions noted are these: 20 µM, not rescued by MG132. As to the method:
Protein extraction from tissues or cells was performed by lysis buffer (20 mM Tris‐HCl (pH 7.5), 150 mM NaCl, 1 mM EDTA, 1 mM EGTA, 2.5 mM sodium pyrophosphate, 1 mM β‐glycerolphosphate, 1% Triton X‐100) supplemented with 1% phenylmethylsulfonyl fluoride (PMSF; Solarbio, P0100) and protease inhibitor cocktail (Apexbio, K1007) and lysed at 4 °C for 60 min, followed by centrifugation at 12000 g for 15 min at 4 °C. For Immunoblotting, the protein concentration was determined using the Pierce BCA Protein Assay Kit (Thermo Fisher Scientific, A55864). The protein samples were denatured by boiling in SDS‐PAGE loading buffer. For immunoprecipitation, antibodies were incubated with Dynabeads Protein G (Thermo, 10004D) at 4 °C for 4 h. The supernatant was then incubated with magnetic beads conjugated with antibodies or anti‐FLAG‐M2 magnetic beads (Sigma–Aldrich, M8823) at 4 °C overnight. Following incubation, the magnetic beads were washed three times with lysis buffer and then boiled in SDS‐PAGE loading buffer. The proteins were separated by sodium dodecyl sulfate polyacrylamide gel electrophoresis (SDS‐PAGE) with One‐Step PAGE Gel Fast Preparation Kit (Vazyme), and then transferred to the PVDF Membrane (Bio‐Rad). After blocking with a protein‐free rapid blocking buffer (Epizyme, PS108P) for 15 min, the membranes were incubated with primary antibodies at 4 °C overnight. […]
On the technique in general: In western blotting, separated proteins are transferred to a membrane and probed.

Data set [3] deals with G9A (Homo sapiens, UniProt Q96KQ7). Kind of data set: Off-target methyltransferase profiling (MTase-Glo). It is filed as biochemical. As to the method: (§1) To evaluate the off‐target effects of LZQ‐02‐023‐01 on methyltransferase activity, a panel of enzymes was assessed using the MTase‐Glo Methyltransferase Assay (Promega), following the manufacturer's instructions. The assay was performed by ICE Bioscience Inc. Briefly, LZQ‐02‐023‐01 was serially diluted 4‐fold in DMSO to generate a 10‐point concentration gradient, and the resulting solutions were dispensed into 384‐well white assay plates using an Echo acoustic liquid handler (Labcyte). Plates were centrifuged at 1000 rpm for 1 min to ensure even compound distribution. Following a 10‐min preincubation at 25 °C, 2 µL of a substrate solution containing S‐adenosylmethionine (SAM) and the specific methyltransferase substrate (Table S7, Supporting Information) was added to each well. After a brief centrifugation, plates were incubated at 25 °C for 180 min to allow the enzymatic methylation reaction to proceed. Subsequently, 1 µL of MTase‐Glo reagent was added, followed by centrifugation and incubation at 25 °C for 45 min. Then, 5 µL of MTase‐Glo detection solution was introduced into each well, and the plates were incubated for an additional 45 min at 25 °C after centrifugation.
(§2) Luminescence signals were directly proportional to methyltransferase activity, were recorded using a microplate reader (BMG LABTECH). Percent inhibition was calculated by normalizing luminescence intensities of compound‐treated wells to DMSO‐treated controls, and IC50 values were calculated using GraphPad Prism 8 software.

In data set [4] the target is PRMT1 (Homo sapiens, UniProt Q99873). As to the kind of experiment: Off-target methyltransferase profiling (MTase-Glo). It is filed as biochemical. As to the method:
as §1, §2

The target in data set [5] is PRMT6 (Homo sapiens, UniProt Q96LA8). As to the kind of experiment: Off-target methyltransferase profiling (MTase-Glo). It is filed as biochemical. As to the method:
as §1, §2

For data set [6], the target named is DNMT1 (Homo sapiens, UniProt P26358). As to the kind of experiment: Off-target methyltransferase profiling (MTase-Glo). It is filed as biochemical. As to the method:
as §1, §2

The target in data set [7] is EZH2 (Homo sapiens, UniProt Q15910). As to the kind of experiment: Off-target methyltransferase profiling (MTase-Glo). It is filed as biochemical. As to the method: as §1, §2
Data set [8] has as its target EZH2 [A677G] (Homo sapiens, UniProt Q15910, A677G). As to the kind of experiment: Off-target methyltransferase profiling (MTase-Glo). It is filed as biochemical. As to the method:
as §1, §2

Data set [9] concerns the target SETD2 (Homo sapiens, UniProt Q9BYW2). Kind of data set: Off-target methyltransferase profiling (MTase-Glo). It is filed as biochemical. As to the method: as §1, §2
In data set [10] the target is PRMT5+MTA (Homo sapiens, UniProt O14744). Kind of data set: Off-target methyltransferase profiling (MTase-Glo). It is filed as biochemical. As to the method: as §1, §2
Data set [11] has as its target EZH2 [Y641F] (Homo sapiens, UniProt Q15910, Y641F). As to the kind of experiment: Off-target methyltransferase profiling (MTase-Glo). It is filed as biochemical. As to the method: as §1, §2
Data set [12] can be described thus: Body weight and organ toxicity in treated tumor-bearing mice. It is filed as in vivo. Particulars: K19-C2mE and Cldn18-AT mice. As to the method: For the subcutaneous tumor model, 5 × 10⁶ MKN45 cells suspended in 100 µL of sterile PBS were injected subcutaneously into the flanks of BALB/c nude mice. When tumor volumes reached approximately 50 mm^3, mice were randomized into three groups (Vehicle control, LZQ‐02‐023‐01 at 20 mg/kg or 40 mg/kg, n = 10 per group). All treatments were administered via intraperitoneal injection once daily for 14 consecutive days. Tumor volumes were measured every 2 days using calipers and calculated using the formula: volume = [length × (width[2])]/2. Mice were sacrificed on day 24 for endpoint analyses. For genetically engineered mouse models (GEMMs), 25‐week‐old K19‐C2mE mice were randomized into Vehicle control (n = 8) and LZQ‐02‐023‐01 treatment (40 mg/kg, n = 8) groups. Both groups received daily intraperitoneal injections for 28 consecutive days. Similarly, 8‐week‐old Cldn18‐AT mice were induced with tamoxifen (100 mg/kg, T5648, Sigma) and, 2 weeks post‐induction, randomized into Vehicle (n = 6) and LZQ‐02‐023‐01 (40 mg/kg, n = 6) treatment groups. Treatments were administered daily via intraperitoneal injection for 28 days.

Setting [13] is: MKN45 xenograft, 20 or 40 mg/kg/day.

Chain of DNMT1 (P26358 whole entry, species assumed): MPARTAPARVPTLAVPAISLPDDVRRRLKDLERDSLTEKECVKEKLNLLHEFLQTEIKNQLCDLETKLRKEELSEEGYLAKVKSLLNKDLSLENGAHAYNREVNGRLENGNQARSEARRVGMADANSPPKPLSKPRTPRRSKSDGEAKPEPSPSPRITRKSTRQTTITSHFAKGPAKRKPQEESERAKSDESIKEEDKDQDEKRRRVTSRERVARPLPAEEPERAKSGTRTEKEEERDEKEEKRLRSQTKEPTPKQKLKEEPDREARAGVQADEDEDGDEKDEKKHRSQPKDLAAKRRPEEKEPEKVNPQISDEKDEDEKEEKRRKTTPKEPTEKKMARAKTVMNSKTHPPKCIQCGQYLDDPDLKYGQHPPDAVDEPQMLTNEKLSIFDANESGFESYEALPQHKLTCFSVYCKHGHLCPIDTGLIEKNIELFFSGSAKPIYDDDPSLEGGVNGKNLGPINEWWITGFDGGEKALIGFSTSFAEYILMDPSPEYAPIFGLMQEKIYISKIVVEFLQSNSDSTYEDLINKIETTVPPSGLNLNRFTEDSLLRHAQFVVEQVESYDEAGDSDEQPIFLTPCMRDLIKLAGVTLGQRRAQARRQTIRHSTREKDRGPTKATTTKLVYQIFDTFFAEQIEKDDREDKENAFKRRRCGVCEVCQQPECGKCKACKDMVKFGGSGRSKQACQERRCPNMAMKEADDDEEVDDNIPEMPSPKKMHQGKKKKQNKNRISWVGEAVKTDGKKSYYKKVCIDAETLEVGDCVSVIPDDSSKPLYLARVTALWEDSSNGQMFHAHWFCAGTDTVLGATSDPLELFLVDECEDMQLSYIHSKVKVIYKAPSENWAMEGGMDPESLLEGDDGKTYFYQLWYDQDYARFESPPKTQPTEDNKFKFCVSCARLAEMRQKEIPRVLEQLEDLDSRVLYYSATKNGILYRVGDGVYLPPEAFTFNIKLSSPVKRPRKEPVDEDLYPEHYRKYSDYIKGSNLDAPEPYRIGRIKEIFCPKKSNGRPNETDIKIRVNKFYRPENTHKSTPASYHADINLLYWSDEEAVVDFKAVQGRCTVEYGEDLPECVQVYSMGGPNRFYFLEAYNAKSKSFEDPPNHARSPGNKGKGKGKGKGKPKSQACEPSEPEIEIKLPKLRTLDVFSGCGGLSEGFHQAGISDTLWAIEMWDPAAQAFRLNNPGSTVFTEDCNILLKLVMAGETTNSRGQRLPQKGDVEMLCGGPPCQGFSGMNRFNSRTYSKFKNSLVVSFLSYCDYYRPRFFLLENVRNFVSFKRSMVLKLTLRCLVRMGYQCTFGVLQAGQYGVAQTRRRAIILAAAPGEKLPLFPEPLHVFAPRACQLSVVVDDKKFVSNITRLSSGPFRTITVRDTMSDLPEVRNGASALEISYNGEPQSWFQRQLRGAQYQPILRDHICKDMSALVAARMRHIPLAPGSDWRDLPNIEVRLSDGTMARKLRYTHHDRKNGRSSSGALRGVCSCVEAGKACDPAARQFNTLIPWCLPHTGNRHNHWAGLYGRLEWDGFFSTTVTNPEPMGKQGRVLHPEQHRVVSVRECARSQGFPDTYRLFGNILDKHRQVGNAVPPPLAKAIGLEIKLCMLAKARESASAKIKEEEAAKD
Chain of EZH2 [Y641F] (Q15910 whole entry Y641F): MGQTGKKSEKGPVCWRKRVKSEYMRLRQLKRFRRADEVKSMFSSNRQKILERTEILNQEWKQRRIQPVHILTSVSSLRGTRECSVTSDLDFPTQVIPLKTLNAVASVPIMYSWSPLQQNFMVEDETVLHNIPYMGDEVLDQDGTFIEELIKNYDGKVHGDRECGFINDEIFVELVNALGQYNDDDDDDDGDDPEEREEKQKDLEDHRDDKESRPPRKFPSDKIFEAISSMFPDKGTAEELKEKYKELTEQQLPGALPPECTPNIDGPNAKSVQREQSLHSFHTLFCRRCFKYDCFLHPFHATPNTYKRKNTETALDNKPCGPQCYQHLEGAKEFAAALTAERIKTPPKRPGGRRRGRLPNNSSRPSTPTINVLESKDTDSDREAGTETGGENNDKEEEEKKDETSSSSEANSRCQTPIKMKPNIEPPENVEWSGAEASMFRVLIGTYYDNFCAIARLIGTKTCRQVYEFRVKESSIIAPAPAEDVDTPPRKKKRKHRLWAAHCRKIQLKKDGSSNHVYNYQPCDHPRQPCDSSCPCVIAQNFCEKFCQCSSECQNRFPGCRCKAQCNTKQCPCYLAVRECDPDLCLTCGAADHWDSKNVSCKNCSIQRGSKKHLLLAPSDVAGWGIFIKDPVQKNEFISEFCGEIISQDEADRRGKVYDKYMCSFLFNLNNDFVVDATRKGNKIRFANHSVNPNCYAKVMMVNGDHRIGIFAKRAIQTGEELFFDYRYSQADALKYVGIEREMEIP
Chain of EZH2 [Y641F] (O75530 whole entry partner): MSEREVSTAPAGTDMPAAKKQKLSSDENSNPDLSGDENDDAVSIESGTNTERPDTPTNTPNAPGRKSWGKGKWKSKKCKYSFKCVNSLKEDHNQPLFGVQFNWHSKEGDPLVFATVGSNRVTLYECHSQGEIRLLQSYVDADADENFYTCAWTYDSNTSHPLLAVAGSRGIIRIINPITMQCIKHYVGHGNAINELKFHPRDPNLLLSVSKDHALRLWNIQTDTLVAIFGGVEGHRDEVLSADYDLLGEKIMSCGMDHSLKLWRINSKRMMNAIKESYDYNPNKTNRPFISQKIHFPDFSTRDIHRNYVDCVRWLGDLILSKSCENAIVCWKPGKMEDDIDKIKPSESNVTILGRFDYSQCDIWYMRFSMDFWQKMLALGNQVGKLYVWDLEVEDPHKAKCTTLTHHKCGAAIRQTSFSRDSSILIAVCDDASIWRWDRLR
Chain of EZH2 [Y641F] (Q15022 whole entry partner): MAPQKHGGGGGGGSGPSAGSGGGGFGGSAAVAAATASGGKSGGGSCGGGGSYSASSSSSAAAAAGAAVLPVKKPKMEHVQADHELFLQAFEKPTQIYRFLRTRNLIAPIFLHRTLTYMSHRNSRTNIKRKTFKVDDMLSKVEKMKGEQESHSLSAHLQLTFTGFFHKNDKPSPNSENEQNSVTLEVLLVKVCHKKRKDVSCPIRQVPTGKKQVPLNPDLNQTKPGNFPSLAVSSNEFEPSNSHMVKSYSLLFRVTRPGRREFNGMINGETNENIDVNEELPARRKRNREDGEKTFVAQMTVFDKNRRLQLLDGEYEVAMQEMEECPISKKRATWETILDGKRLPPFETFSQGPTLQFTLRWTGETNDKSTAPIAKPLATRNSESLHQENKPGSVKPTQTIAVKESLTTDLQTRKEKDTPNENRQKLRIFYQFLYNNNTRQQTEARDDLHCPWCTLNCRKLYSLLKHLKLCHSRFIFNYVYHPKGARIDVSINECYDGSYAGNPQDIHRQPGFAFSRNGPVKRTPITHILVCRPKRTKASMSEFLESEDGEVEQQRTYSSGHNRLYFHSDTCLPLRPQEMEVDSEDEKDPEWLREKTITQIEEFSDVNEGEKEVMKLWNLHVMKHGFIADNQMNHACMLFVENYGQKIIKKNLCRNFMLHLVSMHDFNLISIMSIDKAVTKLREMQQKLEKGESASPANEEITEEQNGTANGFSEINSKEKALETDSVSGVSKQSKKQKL
Chain of EZH2 [Y641F] (Q09028 whole entry partner): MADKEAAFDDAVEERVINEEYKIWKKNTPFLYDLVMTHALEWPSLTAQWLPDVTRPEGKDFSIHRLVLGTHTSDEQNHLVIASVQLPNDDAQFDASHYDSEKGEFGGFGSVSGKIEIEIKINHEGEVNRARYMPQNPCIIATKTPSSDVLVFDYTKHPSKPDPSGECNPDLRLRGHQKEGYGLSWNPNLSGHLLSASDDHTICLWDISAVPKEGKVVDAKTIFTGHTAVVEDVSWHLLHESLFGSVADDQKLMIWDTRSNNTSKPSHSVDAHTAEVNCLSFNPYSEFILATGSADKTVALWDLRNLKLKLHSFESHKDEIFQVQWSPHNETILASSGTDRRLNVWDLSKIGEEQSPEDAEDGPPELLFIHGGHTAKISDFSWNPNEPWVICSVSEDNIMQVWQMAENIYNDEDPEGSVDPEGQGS
Chain of PRMT6 (Q96LA8 whole entry, species assumed): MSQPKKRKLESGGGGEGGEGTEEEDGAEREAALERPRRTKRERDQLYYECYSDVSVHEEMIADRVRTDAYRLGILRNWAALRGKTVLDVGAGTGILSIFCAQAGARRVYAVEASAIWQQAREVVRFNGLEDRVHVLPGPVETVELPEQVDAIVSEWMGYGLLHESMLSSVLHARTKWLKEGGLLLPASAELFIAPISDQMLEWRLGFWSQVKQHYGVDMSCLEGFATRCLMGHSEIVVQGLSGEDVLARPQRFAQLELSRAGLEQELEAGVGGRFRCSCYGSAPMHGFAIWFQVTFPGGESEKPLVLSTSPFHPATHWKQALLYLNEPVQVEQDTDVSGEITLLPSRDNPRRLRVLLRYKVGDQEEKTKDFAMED
Chain of PRMT1 (Q99873 whole entry, species assumed): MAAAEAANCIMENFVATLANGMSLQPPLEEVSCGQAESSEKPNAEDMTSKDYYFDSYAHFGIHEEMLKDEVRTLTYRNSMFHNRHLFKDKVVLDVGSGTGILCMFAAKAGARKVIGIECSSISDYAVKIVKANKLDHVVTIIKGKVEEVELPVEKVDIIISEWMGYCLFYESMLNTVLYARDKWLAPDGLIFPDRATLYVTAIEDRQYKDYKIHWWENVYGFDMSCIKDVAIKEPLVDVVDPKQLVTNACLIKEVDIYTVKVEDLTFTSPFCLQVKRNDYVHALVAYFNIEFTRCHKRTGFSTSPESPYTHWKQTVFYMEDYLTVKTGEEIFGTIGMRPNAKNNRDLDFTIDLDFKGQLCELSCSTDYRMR
Chain of EZH2 [A677G] (Q15910 whole entry A677G): as the sequence (Q15910 whole entry Y641F) above, with F641Y, A677G counted along it
Chain of EZH2 [A677G] (O75530 whole entry partner): as the sequence (O75530 whole entry partner) above
Chain of EZH2 [A677G] (Q15022 whole entry partner): as the sequence (Q15022 whole entry partner) above
Chain of EZH2 [A677G] (Q09028 whole entry partner): as the sequence (Q09028 whole entry partner) above

In the case of `Cc1ccc(Nc2ncc3c(n2)N(C)C(=O)N(c2cccc(N)c2)C3)cn1` [LZQ-02-023-01, Three‐(3‐aminophenyl)‐1‐methyl‐7‐((6‐methylpyridin‐3‐yl)amino)‐3,4‐dihydropyrimido [4,5‐d] pyrimidin‐2 (1H)‐one], in [1], the “PIAS3-mediated ubiquitination and degradation of MITF, cell-free system” value is “significantly promoted”. In addition, the METTL10 protein levels result in data set [2] is given as “significant reduction”. Further, the IC50 in data set [3] was 39.1 µM; in data set [4], 19.7 µM; in data set [5] it was 11 µM; in data set [6], 23.8 µM; in data set [7] it was 14.7 µM; in data set [8] it was 13.7 µM. In addition, the IC50 in [9] was 18.6 µM; in [10], 13.9 µM; in [11], 2.94 µM. For the same compound, in data set [12] (40 mg/kg/day), the Spleen weight entry was “reduction”. Further, the Body weight loss entry in [12] (setting [13]) is recorded as “did not cause substantial weight loss”. For the same compound, the “Discernible toxic effects on other organs” value in [12] (setting [13]) is on record as “did not cause”.

As usually defined, the IC50 is the concentration at which inhibition is half-maximal. A higher IC50 goes with lower potency.
